Experimental data: US8546376B2, “Pharmaceutical compounds” (Almac Discovery Limited, priority 2009, dated 2013)

What was measured:
[1] = tested on: PC3 and/or LnCaP cell lines; assay: In vitro cell proliferation assay (Cell Titre Glo); type: cell-based; settings: Homo sapiens, 72 hours, read-out: inhibition of proliferation IC50
Description: Testing of the compounds was also performed using in vitro cell proliferation assays:
Cell Titre Glo (Promega) is a highly sensitive homogeneous reagent used to determine the viability of cells. The reagent uses a stable form of luciferase to measure ATP as an output of viability. The luminescent values generated in the assay are directly proportional to the number of viable cells in your assay.
The following materials were used: White, clear bottomed 96 well assay plates (Costar); Cell titre Glo reagents; LnCaP (ECACC) cells grown in RPMI medium (Invitrogen) supplemented with 10 mM HEPES (Invitrogen), 1 mM Sodium pyruvate (Invitrogen), 2 mM L-Glutamine (Invitrogen) and 10% Foetal calf serum (Invitrogen); PC3 (ECACC) cells grown in RPMI medium supplemented with 10% Foetal calf serum (Invitrogen); Trypsin (Invitrogen); PBS (Invitrogen); Biotek Synergy 4 Hybrid Plate reader; 96 well plate shaker (Stuart SSL5); Eppendorf 5414 desk-top centrifuge; Beckman Coulter cell counter Z1 single threshold system.
Prostate cell lines, PC3 and LnCaP, were washed, detached and re-suspended in their respective fresh media. The cells were pelleted by centrifugation (Eppendorf 5414) and spent supernatant discarded. The cells were re-suspended by vortex mixing, counted and seeded into clear bottom white 96 well plates at a density of 5000 cells per well. The cells were incubated (Sanyo) overnight at 37° C. ([…]), and next day treated with increasing concentrations of test compound formulated in fresh medium. The plates were returned to the incubator for 72 hours. […]
The cell viability post compound treatment was determined by the luminescent intensity emitted from the drug treated wells in the plate. In brief, the assay plate was placed in the Biotex Synergy 4 Hybrid plate reader and the luminescence read in each well. The compound treated wells were compared to vehicle treated wells and the % inhibition of cell viability calculated.
The data was analysed using GraphPad Prism, with IC50 values generated using non-linear regression of the data set.

AKT1 = target: T1, AKT1 (Homo sapiens, UniProt P31749); assay: AKT Kinase Assay (IMAP fluorescent polarisation) vs AKT1; type: biochemical; settings: activated AKT1, FAM Crosstide substrate
T1 construct: purchased SignalChem
How it was run: (§1)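 IC50 values came from non-linear regression of % inhibition relative to vehicle, measured by IMAP fluorescence polarisation (485/528 nm) after a 1 h room-temperature reaction of FAM-Crosstide and ATP. Each activated isoform was first exposed to compound for 45 min across fourteen half-log doses.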

AKT2 = target: T2, AKT2 (Homo sapiens, UniProt P31751); assay: AKT Kinase Assay (IMAP fluorescent polarisation) vs AKT2; type: biochemical; settings: activated AKT2, FAM Crosstide substrate
T2 construct: purchased SignalChem
How it was run: as §1

AKT3 = target: T3, AKT3 (Homo sapiens, UniProt Q9Y243); assay: AKT Kinase Assay (IMAP fluorescent polarisation) vs AKT3; type: biochemical; settings: activated AKT3, FAM Crosstide substrate
T3 construct: purchased SignalChem
How it was run: as §1

AKT phosphorylation = assay: Phosphorylation status of AKT/PI3K pathway members via western blotting; type: cell-based; settings: for 48 h at 10 μM
Excerpt: Analysis of Compound Effects on AKT Signalling Pathways
Phosphorylation status of various members of the AKT/PI3K pathway were investigated via western blotting.
Materials Required for this Assay: 20× Running buffer (Invitrogen); Rainbow marker ladder (GE Healthcare); Reducing buffer (Invitrogen); 20× Transfer buffer (Invitrogen); 4-12% Bis-Tris Gels (Invitrogen); Filter paper (Whatman); Nitrocellulose (Amersham); ECL plus detection reagents (GE Healthcare); Radiographic film (Kodak); Biorad Protein determination reagent (Biorad); AKT pathway signalling antibodies (Cell Signalling)
LnCaP and PC3 cell lines were washed, detached and re-suspended in fresh medium. They were seeded in 90 mm^2 dishes and incubated overnight ([…]/5% CO2) to allow adherence. […]
The medium was removed and the cells placed on ice and washed in PBS. […] The resultant supernatant was assayed for protein content using the Bradford method (Biorad) and equal quantities of protein calculated and heated in sample reducing buffer to 95° C. for ten minutes. […]
The membranes were used to determine difference in total AKT, pSer473 AKT, pGSK3β and total GSK3β (all sourced from Cell Signalling). […] The membranes were washed three times in PBS and incubated with the respective secondary antibodies (Sigma Aldrich) for two hours and the proteins were detected using ECL plus detection reagents (GE Healthcare).

T1 sequence (P31749 whole entry): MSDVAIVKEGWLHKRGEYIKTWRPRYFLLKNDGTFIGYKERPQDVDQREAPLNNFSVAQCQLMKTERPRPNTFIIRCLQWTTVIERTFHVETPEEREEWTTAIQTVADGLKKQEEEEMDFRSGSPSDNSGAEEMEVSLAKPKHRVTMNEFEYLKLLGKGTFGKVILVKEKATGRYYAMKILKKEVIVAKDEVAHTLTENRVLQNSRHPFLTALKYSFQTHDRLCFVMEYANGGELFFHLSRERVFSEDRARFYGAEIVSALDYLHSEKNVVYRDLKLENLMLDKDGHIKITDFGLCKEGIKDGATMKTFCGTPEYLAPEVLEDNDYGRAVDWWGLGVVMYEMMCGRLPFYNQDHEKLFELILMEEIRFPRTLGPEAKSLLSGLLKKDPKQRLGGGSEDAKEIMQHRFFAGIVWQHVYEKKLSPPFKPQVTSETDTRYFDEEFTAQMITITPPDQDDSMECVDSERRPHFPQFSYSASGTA
T3 sequence (Q9Y243 whole entry): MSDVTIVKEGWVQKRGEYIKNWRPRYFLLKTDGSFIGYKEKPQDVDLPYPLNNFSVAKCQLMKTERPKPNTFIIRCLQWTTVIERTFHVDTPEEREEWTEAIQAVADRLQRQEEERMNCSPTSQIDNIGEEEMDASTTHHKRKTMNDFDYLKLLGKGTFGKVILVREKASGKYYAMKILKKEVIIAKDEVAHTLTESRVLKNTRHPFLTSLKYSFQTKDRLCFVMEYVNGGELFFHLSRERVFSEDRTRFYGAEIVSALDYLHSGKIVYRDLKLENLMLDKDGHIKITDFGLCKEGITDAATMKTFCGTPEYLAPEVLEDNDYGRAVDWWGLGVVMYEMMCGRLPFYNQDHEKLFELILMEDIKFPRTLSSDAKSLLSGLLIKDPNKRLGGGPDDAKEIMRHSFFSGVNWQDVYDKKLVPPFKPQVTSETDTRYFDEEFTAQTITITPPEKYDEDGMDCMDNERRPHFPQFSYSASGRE
T2 sequence (P31751 whole entry): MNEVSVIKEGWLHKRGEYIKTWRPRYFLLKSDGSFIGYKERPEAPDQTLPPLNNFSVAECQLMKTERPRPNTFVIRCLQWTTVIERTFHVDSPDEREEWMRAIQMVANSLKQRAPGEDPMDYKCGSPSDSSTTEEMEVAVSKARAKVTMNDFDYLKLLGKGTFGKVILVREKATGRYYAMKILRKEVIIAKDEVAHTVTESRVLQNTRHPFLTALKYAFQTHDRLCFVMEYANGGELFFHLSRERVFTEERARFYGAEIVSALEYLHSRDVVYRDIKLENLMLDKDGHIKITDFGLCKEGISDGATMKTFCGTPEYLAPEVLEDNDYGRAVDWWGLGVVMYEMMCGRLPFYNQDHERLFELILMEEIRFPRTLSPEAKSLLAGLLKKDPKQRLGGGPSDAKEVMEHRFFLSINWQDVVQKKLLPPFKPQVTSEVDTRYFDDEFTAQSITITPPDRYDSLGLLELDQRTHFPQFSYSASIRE

IC50 [1]	IC50 (AKT1)	IC50 (AKT2)	IC50 (AKT3)	SMILES	inhibition of AKT phosphorylation (AKT phosphorylation)
< 10000 nM	1000 to 10000 nM	≤ 1000 nM	> 10000 nM	COc1ccc2c(=O)c(-c3ccc(C4(N)CCC4)cc3)c(-c3ccccc3)oc2c1OC [Example 4, 3-[4-(1-Amino-cyclobutyl)-phenyl]-7,8-dimethoxy-2-phenyl-chromen-4-one]	–
–	1000 to 10000 nM	≤ 1000 nM	> 10000 nM	CN1CCN(c2ccc3oc(-c4ccccc4)c(-c4ccc(C5(N)CCC5)cc4)c(=O)c3c2)CC1 [Example 20, 3-[4-(1-Amino-cyclobutyl)-phenyl]-6-(4-methyl-piperazin-1-yl)-2-phenyl-chromen-4-one]	inhibition of AKT phosphorylation
< 10000 nM	≤ 1000 nM	≤ 1000 nM	1000 to 10000 nM	Cl.NC1(c2ccc(-c3c(-c4ccccc4)oc4c(=O)[nH]ccc4c3=O)cc2)CCC1 [Example 40, 3-[4-(1-Amino-cyclobutyl)-phenyl]-2-phenyl-7H-pyrano[2,3-c]pyridine-4,8-dione hydrochloride]	inhibition of AKT phosphorylation
< 10000 nM	≤ 1000 nM	≤ 1000 nM	≤ 1000 nM	NC1(c2ccc(-c3c(-c4ccccc4)oc4c(cc(Cl)c5nc[nH]c54)c3=O)cc2)CCC1 [Example 44, 7-[4-(1-Amino-cyclobutyl)-phenyl]-4-chloro-8-phenyl-1H-chromeno[7,8-d]imidazol-6-one]	–
